# Results from patent publication US7964624B1, “Inhibitors of serine proteases” (priority 2005, dated 2011).
# Tests used:
# HCV NS3 protease domain = biological target: T1, HCV NS3 protease domain (Hepatitis C virus genotype 1b, UniProt Q9WMX2); test: biochemical; conditions: Enzyme Assay 1 (HCV NS3 Protease Domain Peptide Cleavage Assay) activity, apparent Ki class
# T1 construct: The first 181 amino acids of NS3 (residues 1027-1207 of the viral polyprotein); hexa-histidine (C); made in house; host or cells: E. coli BL21/DE3 pLysS
# [1] = biological target: T2, full-length hepatitis C viral protein NS3•4A (Hepatitis C virus genotype 1a, UniProt P27958); test: biochemical; design: species or system HCV sub-type strain 1a; conditions: Enzyme Assay 2 (HCV NS3 Peptide Cleavage Assay) activity, apparent Ki class
# T2 construct: hexa-histidine (N); made in house; host or cells: Sf9 insect cells (baculovirus, pVL1392)
SMILES,Ki (HCV NS3 protease domain) [nM],Ki [1] [nM]
CCC[C@H](NC(=O)[C@@H]1C[C@]2(CC(c3cccc(Cl)c3)=NO2)CN1C(=O)[C@@H](NC(=O)CC1CCCCC1)C(C)(C)C)C(=O)C(=O)Nc1ccc(C)c(C#N)c1 [Compound 96],> 500,100 to 500
CCC[C@H](NC(=O)[C@@H]1C[C@]2(CC(c3cccc(Cl)c3)=NO2)CN1C(=O)CCCC(=O)Nc1ccc(C)cc1C)C(=O)C(=O)NC1CC1 [Compound 246],> 500,> 500
CCC[C@H](NC(=O)[C@@H]1C[C@]2(CC(c3cccc(Cl)c3)=NO2)CN1C(=O)[C@@H](NC(=O)CC1CCCCC1)C(C)(C)C)C(=O)C(=O)NCc1ccncc1 [Compound 461],> 500,100 to 500
CCC[C@H](NC(=O)[C@@H]1C[C@]2(CC(c3cccc(Cl)c3)=NO2)CN1C(=O)CC(C)(C)C)C(=O)C(=O)NC1CC1 [Compound 351],> 500,> 500
C=C[C@@H]1C[C@]1(NC(=O)[C@@H]1C[C@]2(CC(c3cccc(Cl)c3)=NO2)CN1C(=O)[C@@H](NC(=O)OC1CCCC1)C(C)(C)C)C(=O)O [Compound 443],> 500,> 500
CCC[C@H](NC(=O)[C@@H]1C[C@]2(CC(c3cccc(Cl)c3)=NO2)CN1C(=O)[C@@H](NC(=O)C1CCCCC1)C(C)(C)C)C(=O)C(=O)NC1CC1 [Compound 93],100 to 500,< 100
CCC[C@H](NC(=O)[C@@H]1C[C@]2(CC(c3cc(Cl)c4c(c3)OCO4)=NO2)CN1C(=O)[C@@H](NC(=O)CC1CCCCC1)C(C)(C)C)C(=O)C(=O)NC1CC1 [Compound 370],100 to 500,< 100
CCC[C@H](NC(=O)[C@@H]1CC2(CC(c3cccc(Cl)c3)=NO2)CN1C(=O)[C@H](CCSCC)NC(C)=O)C(=O)C(=O)NC1CC1 (some centres unmarked) [Compound 54],> 500,100 to 500
C=C[C@@H]1C[C@]1(NC(=O)[C@@H]1C[C@]2(CC(c3cccc(Cl)c3)=NO2)CN1C(=O)[C@@H](NC(=O)OC1CCOC1)C(C)(C)C)C(=O)NS(=O)(=O)C1CC1 (some centres unmarked) [Compound 45],> 500,100 to 500
CCC[C@H](NC(=O)[C@@H]1C[C@]2(CC(c3cccc(Cl)c3)=NO2)CN1C(=O)[C@@H](NC(=O)CC1CCCCC1)C(C)(C)C)C(=O)C(=O)N[C@H](C)CC [Compound 452],> 500,100 to 500
CCC[C@H](NC(=O)[C@@H]1C[C@]2(CC(c3cccc(Cl)c3)=NO2)CN1C(=O)CCNS(=O)(=O)c1ccc(NC(C)=O)cc1)C(=O)C(=O)NC1CC1 [Compound 309],> 500,> 500
CCC[C@H](NC(=O)[C@@H]1C[C@]2(CC(c3cccc(Cl)c3)=NO2)CN1C(=O)[C@@H](NC(=O)CC1CCCCC1)C(C)(C)C)C(=O)C(=O)N1CC(C)(O)C1 [Compound 426],> 500,100 to 500
CCC[C@H](NC(=O)[C@@H]1C[C@]2(CC(c3cccc(Cl)c3)=NO2)CN1C(=O)[C@@H](NC(=O)CC1CCCCC1)C(C)OC)C(=O)C(=O)NC1CC1 (some centres unmarked) [Compound 124],> 500,100 to 500
CCC[C@H](NC(=O)[C@@H]1C[C@]2(CC(c3cccc(Cl)c3)=NO2)CN1C(=O)c1ccc(Cl)cc1Nc1ccc(OC)nc1)C(=O)C(=O)NC1CC1 [Compound 248],> 500,> 500
CCC[C@H](NC(=O)[C@@H]1C[C@]2(CC(c3cc(Cl)c(OC)cc3OC)=NO2)CN1C(=O)[C@@H](NC(=O)CC1CCCCC1)C(C)(C)C)C(=O)C(=O)NC1CC1 [Compound 307],100 to 500,< 100
CCC[C@H](NC(=O)[C@@H]1C[C@]2(CC(c3cccc(Cl)c3)=NO2)CN1C(=O)[C@@H](NC(=O)CC1CCCCC1)C(C)(C)C)C(=O)C(=O)N(C)CCC [Compound 350],> 500,> 500
CCC[C@H](NC(=O)[C@@H]1C[C@]2(CC(c3cccc(Cl)c3)=NO2)CN1C(=O)[C@@H](NC(=O)CC1CCCCC1)C(C)(C)C)C(=O)C(=O)Nc1ccon1 [Compound 293],> 500,> 500
CCC[C@H](NC(=O)[C@@H]1C[C@]2(CC(c3cccc(Cl)c3)=NO2)CN1C(=O)[C@H](NS(=O)(=O)c1ccc(C)cc1)c1ccccc1)C(=O)C(=O)NC1CC1 [Compound 476],100 to 500,100 to 500
CCC[C@H](NC(=O)[C@@H]1C[C@]2(CC(c3cccc(Cl)c3)=NO2)CN1C(=O)[C@@H](NC(=O)CC1CCCCC1)C(C)(C)C)C(=O)C(=O)NC1CCC1 [Compound 401],100 to 500,100 to 500
CCC[C@H](NC(=O)[C@@H]1C[C@]2(CC(c3cccc(Cl)c3)=NO2)CN1C(=O)[C@H](Cc1ccsc1)NC(=O)CC1CCCCC1)C(=O)C(=O)NC1CC1 [Compound 185],> 500,100 to 500
CCC[C@H](NC(=O)[C@@H]1C[C@]2(CC(c3cc(Cl)ccc3OC)=NO2)CN1C(=O)[C@@H](NC(=O)CC1CCCCC1)C(C)(C)C)C(=O)C(=O)NC1CC1 [Compound 158],< 100,< 100
CCC[C@H](NC(=O)[C@@H]1C[C@]2(CC(c3cccc(Cl)c3)=NO2)CN1C(=O)[C@@H](NC(=O)CC1CCCCC1)C(C)(C)C)C(=O)C(=O)NC(C)C [Compound 275],100 to 500,100 to 500
CCC[C@H](NC(=O)[C@@H]1C[C@]2(CC(c3cccc(Cl)c3)=NO2)CN1C(=O)[C@@H](NC(=O)CC1CCCCC1)C(C)(C)C)C(=O)C(=O)N[C@@H](C)c1ccccc1 [Compound 546],100 to 500,100 to 500
CCC[C@H](NC(=O)[C@@H]1C[C@]2(CC(c3cccc(Cl)c3)=NO2)CN1C(=O)[C@@H](NC(=O)CC1CCC(C)CC1)C(C)(C)C)C(=O)C(=O)NC1CC1 (some centres unmarked) [Compound 361],100 to 500,< 100
CCC[C@H](NC(=O)[C@@H]1C[C@]2(CC(c3cccc(Cl)c3)=NO2)CN1C(=O)[C@@H](NC(=O)CC1CCN(C(C)=O)CC1)C(C)(C)C)C(=O)C(=O)NC1CC1 [Compound 304],100 to 500,< 100
CCC[C@H](NC(=O)[C@@H]1C[C@]2(CC(c3cccc(Cl)c3)=NO2)CN1C(=O)[C@@H](NC(=O)CC1CCCCC1)C(C)(C)C)C(=O)C(=O)NCc1cc(-c2ccc(Cl)cc2)no1 [Compound 433],> 500,> 500
CN(C)C(=O)C(=O)[C@H](CC1CCC1)NC(=O)[C@@H]1C[C@]2(CC(c3cccc(Cl)c3)=NO2)CN1C(=O)[C@@H](NC(=O)CC1CCCCC1)C(C)(C)C [Compound 63],> 500,> 500
CCC[C@H](NC(=O)[C@@H]1C[C@]2(CC(c3cccc(Cl)c3)=NO2)CN1C(=O)[C@@H](Nc1ccccc1)C(C)(C)C)C(=O)C(=O)NC1CC1 [Compound 172],> 500,100 to 500
